Reference: patent US20240262848A1, “HETEROCYCLIC COMPOUNDS, COMPOSITIONS THEREOF, AND METHODS OF TREATMENT THEREWITH” (BeiGene, Ltd., priority 2022, published 2024)

Columns and labels:
[1] = molecular target: GST-tagged GDP-loaded KRAS G12D (amin acids 1-188) (Homo sapiens, UniProt P01116, G12D); assay: KRAS G12D probe displacement assay (TR-FRET); format: binding; settings: Table 5; KRAS G12D 0.5 nM, biotinylated probe 2 4 nM
Method: Plates are incubated at 24° C. for 1 hr.

[2] = tested on: pERK1/2(THR202/TYR204) level in SW620 cell line; assay: KRAS G12V pERK assay in SW620 cells (HTRF); format: cell-based
Method in brief: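 SW620 cells were treated for 2 h with a 10-point dilution series (final 0–10 μM) after overnight seeding. Lysates were then incubated overnight at room temperature with Eu3+-cryptate and acceptor anti-phospho-ERK1/2 antibodies, and HTRF was read at 655 nm. IC50 was fitted from percent inhibition versus log concentration.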

[3] = molecular target: GST-tagged GDP-loaded KRAS G12V (amino acids 1-169) (Homo sapiens, UniProt P01116, G12V); assay: KRAS G12V probe displacement assay (TR-FRET); format: binding; settings: Table 4; KRAS G12V 2 nM, biotinylated probe 2 2.5 nM
Chain of GST-tagged GDP-loaded KRAS G12V (amino acids 1-169) (P01116 1-169 isoform P01116-2 G12V): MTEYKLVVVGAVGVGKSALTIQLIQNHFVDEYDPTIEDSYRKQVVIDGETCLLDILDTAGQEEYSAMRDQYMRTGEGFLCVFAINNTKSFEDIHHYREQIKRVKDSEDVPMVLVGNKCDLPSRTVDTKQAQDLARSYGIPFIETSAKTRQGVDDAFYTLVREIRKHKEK
Method: Plates are incubated at 24 °C for 1 hr. […] After 1 hr incubation at 24° C.

[4] = tested on: pERK1/2(THR202/TYR204) level in AsPC-1 cell line; assay: KRAS G12D pERK assay in AsPC-1 cells (HTRF); format: cell-based
Method: AsPC-1 cell line was used in this study. Cells were maintained in RPMI-1640 supplemented with 10% fetal bovine serum (Thermo Fisher), 50 units/ml, penicillin and streptomycin (Thermo Fisher) and kept at 37° C. in a humidified atmosphere of 5% CO2 in air. Cells were reinstated from frozen stocks that were laid down within 30 passages from the original cells purchased. 30000 cells per well were seeded into a 96-well plate and incubated overnight. Cells were treated with a 10-point dilution series. The final compound concentration is from 0 to 10 μM. After 2 h compound treatment, cells were lysed, and the pERK1/2(THR202/TYR204) level in the cell lysates was detected by HTRF kit (Cisbio). In brief, a total of 16 μL of cell lysate from each well of a 96-well plate was transferred to a 384-well white assay plate. Lysate from each well was incubated with 2 μL of Eu3+-cryptate (donor) labeled anti-phospho-ERK1/2 and 2 μL of D2 (acceptor) labeled anti-phospho-ERK1/2 antibodies (Cisbio) overnight in dark at room temperature. When the donor and acceptor are in close proximity, excitation of the donor with laser triggers a Fluorescence Resonance Energy Transfer (FRET) towards the acceptor, which in turn fluoresces at 655 nm wavelength. FRET signals were measured using a PHERAstar FSX reader (BMG Labtech). IC50 determination was performed by fitting the curve of percent inhibition versus the log of the inhibitor concentration using Dotmatics.

[5] = Homo sapiens, SW-620, Table 4, 2 hrs compound treatment
[6] = Homo sapiens, ASPC1, Table 5, 2 h compound treatment

Chain of GST-tagged GDP-loaded KRAS G12D (amin acids 1-188) (P01116 1-188 isoform P01116-2 G12D): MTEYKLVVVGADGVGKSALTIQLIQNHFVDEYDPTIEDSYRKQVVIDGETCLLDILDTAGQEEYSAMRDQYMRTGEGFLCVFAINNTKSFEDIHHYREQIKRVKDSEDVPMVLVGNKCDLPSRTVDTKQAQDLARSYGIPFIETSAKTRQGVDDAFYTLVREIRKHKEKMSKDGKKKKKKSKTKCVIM

## Cc1cc(N)cc(-c2nc3c4c(nc(OC[C@@]56CCCN5C[C@H](F)C6)nc4c2F)N(C)[C@@H]2COCC[C@H]2O3)c1C(F)(F)F [Example 61, 3-((7aR,11aR)-4-fluoro-2-(((2R,7aS)-2-fluorotetrahydro-1H-pyrrolizin-7a(5H)-yl)methoxy)-12-methyl-7a, 8,11a, 12-tetrahydro-9H, 11H-7,10-dioxa-1,3,6,12-tetraazapleiaden-5-yl)-5-methyl-4-(trifluoromethyl)aniline]
[1]
  IC50: 0.57 nM
[2]; [5]
  IC50: 22 nM
[3]
  IC50: 0.8 nM
[4]; [6]
  IC50: 23 nM

## CN1CCCOc2cc(-c3ccc(F)c4sc(N)c(C#N)c34)c(F)c3nc(OC[C@@]45CCCN4C[C@H](F)C5)nc1c23 [Example 2, 2-amino-7-fluoro-4-(11-fluoro-2-(((2R,7aS)-2-fluorotetrahydro-1H-pyrrolizin-7a(5H)-yl)methoxy)-4-methyl-4.5,6,7-tetrahydro-[1,5]oxazocino[4,3,2-de]quinazolin-10-yl)benzo[b]thiophene-3-carbonitrile]
[1]
  IC50: 6.2 nM
[2]; [5]
  IC50: 255 nM
[3]
  IC50: 3.6 nM
[4]; [6]
  IC50: 594 nM

## C#Cc1c(F)ccc2cc(O)cc(-c3nc4c5c(nc(OC[C@@]67CCCN6C[C@H](F)C7)nc5c3F)N(C)CCCO4)c12 [Example 10, 5-ethynyl-6-fluoro-4-(4-fluoro-2-(((2R,7aS)-2-fluorotetrahydro-1H-pyrrolizin-7a(5H)-yl)methoxy)-11-methyl-8,9,10,11-tetrahydro-7-oxa-1,3,6,11-tetraazacycloocta[de]naphthalen-5-yl)naphthalen-2-ol]
[1]
  IC50: 1.1 nM
[2]; [5]
  IC50: 103 nM
[3]
  IC50: 1.4 nM
[4]; [6]
  IC50: 123 nM

## CN1c2nc(OC[C@@]34CCCN3C[C@H](F)C4)nc3c(F)c(-c4cc(N)cc(Cl)c4C(F)(F)F)nc(c23)O[C@@H]2CCOC[C@H]21 [Example 51, 3-chloro-5-((7aR,11aR)-4-fluoro-2-(((2R,7aS)-2-fluorotetrahydro-1H-pyrrolizin-7a(5H)-yl)methoxy)-12-methyl-7a, 8,11a, 12-tetrahydro-9H, 11H-7,10-dioxa-1,3,6,12-tetraazapleiaden-5-yl)-4-(trifluoromethyl)aniline]
[1]
  IC50: 0.28 nM
[2]; [5]
  IC50: 9.3 nM
[3]
  IC50: 0.5 nM
[4]; [6]
  IC50: 30 nM

## CN1c2nc(OC[C@@]34CCCN3C[C@H](F)C4)nc3c(F)c(-c4cc(N)cc(Cl)c4C(F)(F)F)nc(c23)O[C@H]2COCC[C@@H]21 [Example 49, 3-chloro-5-((7aR,11aS)-4-fluoro-2-(((2R,7aS)-2-fluorotetrahydro-1H-pyrrolizin-7a(5H)-yl)methoxy)-12-methyl-7a, 8,10,11,11a, 12-hexahydro-7,9-dioxa-1,3,6,12-tetraazapleiaden-5-yl)-4-(trifluoromethyl)aniline]
[1]
  IC50: 0.27 nM
[2]; [5]
  IC50: 8.4 nM
[3]
  IC50: 0.54 nM
[4]; [6]
  IC50: 7.6 nM

## CN(C)CCN1c2nc(OC[C@@]34CCCN3C[C@H](F)C4)nc3c(F)c(-c4cc(N)cc(Cl)c4C(F)(F)F)nc(c23)OCCC12COC2 [Example 44, 3-chloro-5-(11-(2-(dimethylamino)ethyl)-4-fluoro-2-(((2R,7aS)-2-fluorotetrahydro-1H-pyrrolizin-7a(5H)-yl)methoxy)-8,9-dihydro-11H-7-oxa-1,3,6,11-tetraazaspiro[cycloocta[de]naphthalene-10,3′-oxetan]-1(11a), 2,3a, 4,6-pentaen-5-yl)-4-(trifluoromethyl)aniline]
[1]
  IC50: 0.65 nM
[4]; [6]
  IC50: 184 nM

## CNCC(C)N1CCCOc2nc(-c3cc(N)cc(Cl)c3C(F)(F)F)c(F)c3nc(OC[C@@]45CCCN4C[C@H](F)C5)nc1c23 (stereo partly drawn) [Example 39, 3-chloro-5-(4-fluoro-2-(((2R,7aS)-2-fluorotetrahydro-1H-pyrrolizin-7a(5H)-yl)methoxy)-11-(1-(methylamino)propan-2-yl)-8,9,10,11-tetrahydro-7-oxa-1,3,6,11-tetraazacycloocta[de]naphthalen-5-yl)-4-(trifluoromethyl)aniline]
[1]
  IC50: 3.9 nM
[4]; [6]
  IC50: 1780 nM

## CN(C)CCN1c2nc(OC[C@@]34CCCN3C[C@H](F)C4)nc3c(F)c(-c4cc(N)cc(Cl)c4C(F)(F)F)nc(c23)OCC12CCC2 [Example 37, 3-chloro-5-(10′-(2-(dimethylamino)ethyl)-4′-fluoro-2′-(((2R,7aS)-2-fluorotetrahydro-1H-pyrrolizin-7a(5H)-yl)methoxy)-8′H, 10′H-7′-oxa-1′,3′,6′,10′-tetraazaspiro[cyclobutane-1,9′-cyclohepta[de]naphthalen]-1′(10a′), 2′,3a′, 3 al′(6a′), 5′-pentaen-5′-yl)-4-(trifluoromethyl)aniline]
[1]
  IC50: 2.3 nM
[4]; [6]
  IC50: 639 nM

## C[C@@H]1C[C@H](C)Oc2nc(-c3cc(N)cc(Cl)c3C(F)(F)F)c(F)c3nc(OC[C@@]45CCCN4C[C@H](F)C5)nc(c23)N1C [Example 34, 3-chloro-5-((8S,10R)-4-fluoro-2-(((2R,7aS)-2-fluorotetrahydro-1H-pyrrolizin-7a(5H)-yl)methoxy)-8,10,11-trimethyl-8,9,10,11-tetrahydro-7-oxa-1,3,6,11-tetraazacycloocta[de]naphthalen-5-yl)-4-(trifluoromethyl)aniline]
[1]
  IC50: 0.59 nM
[2]; [5]
  IC50: 13 nM
[3]
  IC50: 0.59 nM
[4]; [6]
  IC50: 25 nM

## CN(C)CCN1c2nc(OC[C@@]34CCCN3C[C@H](F)C4)nc3c(F)c(-c4cc(N)cc(Cl)c4C(F)(F)F)nc(c23)OCCC12CC2 [Example 43, 3-chloro-5-(11-(2-(dimethylamino)ethyl)-4-fluoro-2-(((2R,7aS)-2-fluorotetrahydro-1H-pyrrolizin-7a(5H)-yl)methoxy)-8,9-dihydro-11H-7-oxa-1,3,6,11-tetraazaspiro[cycloocta[de]naphthalene-10,1′-cyclopropan]-1(11a), 2,3a, 4,6-pentaen-5-yl)-4-(trifluoromethyl)aniline]
[1]
  IC50: 0.73 nM
[4]; [6]
  IC50: 92 nM

## CN1c2nc(OC[C@@]34CCCN3C[C@H](F)C4)nc3c(F)c(-c4cc(N)cc(Cl)c4C(F)(F)F)nc(c23)OCCC12COC2 [Example 30, 3-chloro-5-(4-fluoro-2-(((2R,7aS)-2-fluorotetrahydro-1H-pyrrolizin-7a(5H)-yl)methoxy)-11-methyl-8,9-dihydro-11H-7-oxa-1,3,6,11-tetraazaspiro[cycloocta[de]naphthalene-10,3′-oxetan]-1(11a), 2,3a, 3a^1(6a), 5-pentaen-5-yl)-4-(trifluoromethyl)aniline]
[1]
  IC50: 0.31 nM
[2]; Table 4, 2 hrs compound treatment
  IC50: 13 nM
[3]
  IC50: 0.63 nM
[4]; Table 5, 2 h compound treatment
  IC50: 11 nM

## CNCC(C)N1c2nc(OC[C@@]34CCCN3C[C@H](F)C4)nc3c(F)c(-c4cc(N)cc(Cl)c4C(F)(F)F)nc(c23)OCC12CCC2 (stereo partly drawn) [Example 38, 3-chloro-5-(4′-fluoro-2′-(((2R,7aS)-2-fluorotetrahydro-1H-pyrrolizin-7a(5H)-yl)methoxy)-10′-(1-(methylamino)propan-2-yl)-8′H, 10′H-7′-oxa-1′,3′,6′,10′-tetraazaspiro[cyclobutane-1,9′-cyclohepta[de]naphthalen]-1′(10a′), 2′,3a′, 3 al′(6a′), 5′-pentaen-5′-yl)-4-(trifluoromethyl)aniline]
[1]
  IC50: 0.38 nM
[4]; [6]
  IC50: 102 nM

## CNCCN1c2nc(OC[C@@]34CCCN3C[C@H](F)C4)nc3c(F)c(-c4cc(N)cc(Cl)c4C(F)(F)F)nc(c23)OCCC12CC2 [Example 42, 3-chloro-5-(4-fluoro-2-(((2R,7aS)-2-fluorotetrahydro-1H-pyrrolizin-7a(5H)-yl)methoxy)-11-(2-(methylamino)ethyl)-8,9-dihydro-11H-7-oxa-1,3,6,11-tetraazaspiro[cycloocta[de]naphthalene-10,1′-cyclopropan]-1(11a), 2,3a, 4,6-pentaen-5-yl)-4-(trifluoromethyl)aniline]
[1]
  IC50: 0.17 nM
[4]; [6]
  IC50: 141 nM

## CNCCN1c2nc(OC[C@@]34CCCN3C[C@H](F)C4)nc3c(F)c(-c4cc(N)cc(Cl)c4C(F)(F)F)nc(c23)O[C@H]2CCCC[C@@H]21 [Example 48, 3-chloro-5-((7aS,11aS)-4-fluoro-2-(((2R,7aS)-2-fluorotetrahydro-1H-pyrrolizin-7a(5H)-yl)methoxy)-12-(2-(methylamino)ethyl)-7a, 8,10,11,11a, 12-hexahydro-9H-7-oxa-1,3,6,12-tetraazapleiaden-5-yl)-4-(trifluoromethyl)aniline]
[1]
  IC50: 20 nM
[4]; [6]
  IC50: 3380 nM
